# Experimental data: patent US20140378460A1, “COMPOSITIONS AND METHODS FOR TREATING NEURODEGENERATIVE DISEASE” (COGNITION THERAPEUTICS, INC., priority 2011, published 2014)
# Read-outs that look alike come from different tables or passages of the source.
# How the values were obtained:
# Sigma-1 receptors [1] = details: Table 11E, clinical compounds; first figure of S1/S2; read-out: Sigma Affinity (S1); cited from earlier work
# Sigma-2 receptors = details: cited from earlier work
# VAChT = VAChT (Homo sapiens, UniProt Q16572); details: cited from earlier work
# Sequence of VAChT (Q16572 whole entry, species assumed): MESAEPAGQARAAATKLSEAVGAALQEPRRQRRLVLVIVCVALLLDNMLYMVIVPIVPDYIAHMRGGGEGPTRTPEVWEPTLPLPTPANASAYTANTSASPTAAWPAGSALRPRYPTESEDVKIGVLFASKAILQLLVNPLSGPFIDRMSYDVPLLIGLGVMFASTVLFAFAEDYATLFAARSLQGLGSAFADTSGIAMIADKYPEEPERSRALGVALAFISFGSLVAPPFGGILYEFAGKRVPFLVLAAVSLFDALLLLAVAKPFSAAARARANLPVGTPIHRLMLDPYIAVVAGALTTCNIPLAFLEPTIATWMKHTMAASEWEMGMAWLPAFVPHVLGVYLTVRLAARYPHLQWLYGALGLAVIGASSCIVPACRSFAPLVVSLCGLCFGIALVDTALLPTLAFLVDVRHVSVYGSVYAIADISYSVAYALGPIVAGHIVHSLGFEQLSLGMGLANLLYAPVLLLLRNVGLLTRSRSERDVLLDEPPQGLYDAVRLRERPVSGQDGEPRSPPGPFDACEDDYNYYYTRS
# muscarinic M1, 2, D2 = details: cited from earlier work
# alpha1 AR, 5-HT1a/2, H1 = details: cited from earlier work
# [2] = system: Abeta oligomer-induced membrane trafficking deficits in primary hippocampal neurons; test: Membrane trafficking/exocytosis (MTT) assay; format: cell-based, rat
# Procedure: The methods used to generate the results were as follows in the Membrane Trafficking/Exocytosis (MTT) assay.
# Primary hippocampal neurons from E18 Sprague-Dawley rat embryos were plated at optimized concentrations in 384 well plates in NB media (Invitrogen). Neurons were maintained in cultures for 3 weeks, with twice weekly feeding of NB media with N2 supplement (Invitrogen).
# A test compound was added to cells at concentrations ranging from 100 uM to 0.001 nM followed by addition of vehicle or Abeta oligomer preparations (3 μM total Abeta protein concentration), and incubated for 1 to 24 hr at 37° C. in 5% CO2. MTT reagent (3-(4,5-dimethylthizaol-2-yl)-2,5diphenyl tetrazolium bromide) (Roche Molecular Biochemicals) was reconstituted in phosphate buffered saline to 5 mg/mL. 10 μl, of MTT labeling reagent is added to each well and incubated at 37° C. for 1 h, then imaged. Exocytosis was assessed by automated microscopy and image processing to quantify the amount of endocytosed and exocytosed formazan.
# Each assay plate was formatted so that compounds are tested with and without Abeta oligomer on each plate.
# [3] = system: SKOV-3 human ovarian cancer cell line; test: MTS tumor cell viability assay; format: cell-based; details: by EC50 relative to siramesine
# Procedure: The cytotoxicity of compounds shown below was determined using the CellTiter96 Aqueous One Solution Assay (Promega, Madison, Wis.). […] The plate was read at 490 nm in a Victor3 plate reader (PerkinElmer Life and Analytical Sciences, Shelton, Conn.). The EC^50 value, defined as the concentration of the sigma ligand required to inhibit cell viability by 50% relative to untreated cells, was determined from the dose response curve for each cell line.
# [4] = system: caspase-3 in SKOV-3 human ovarian cancer cells; test: Caspase-3 activity in tumor cells; format: cell-based
# [5] = system: caspase-3 in neuronal cultures; test: Caspase-3 activity in neurons; format: cell-based
# sigma-2 receptor = details: 1 μM each; 18.4 nM [3H]-RHM-1
# Sigma-1 receptors [6] = target: T1, Sigma-1 receptors (UniProt Q60492); details: cited from earlier work
# T1 construct: other: known prior art compounds, published studies
# alpha 1A, 1B = details: cited from earlier work
# D2 = D2 (Homo sapiens, UniProt P14416); details: cited from earlier work
# Sequence of D2 (P14416 whole entry): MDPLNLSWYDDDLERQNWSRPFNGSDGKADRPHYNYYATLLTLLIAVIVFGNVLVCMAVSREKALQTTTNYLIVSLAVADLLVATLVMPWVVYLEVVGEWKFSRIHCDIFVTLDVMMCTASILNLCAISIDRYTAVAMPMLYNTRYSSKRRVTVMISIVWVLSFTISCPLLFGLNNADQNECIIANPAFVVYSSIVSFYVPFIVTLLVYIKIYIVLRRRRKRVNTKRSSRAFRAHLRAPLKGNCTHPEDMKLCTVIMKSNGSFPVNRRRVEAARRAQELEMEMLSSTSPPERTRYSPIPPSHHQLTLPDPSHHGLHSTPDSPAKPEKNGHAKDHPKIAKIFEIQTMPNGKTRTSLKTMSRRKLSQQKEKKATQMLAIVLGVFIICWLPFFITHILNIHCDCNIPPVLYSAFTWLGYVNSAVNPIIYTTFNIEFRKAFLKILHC
# neuronal cultures = test: Neuronal nuclear intensity / morphology; details: 24 hours
SMILES,Ki (Sigma-1 receptors [1]) [nM],"Ki (Sigma-2 receptors; Table 11E, clinical compounds, second figure of S1/S2, read-out: Sigma Affinity (S2)) [nM]",Other Targets: VAChT (VAChT),"Other Targets: muscarinic M1, 2, D2 (muscarinic M1, 2, D2)","Other Targets: alpha1 AR, 5-HT1a/2, H1 (alpha1 AR, 5-HT1a/2, H1)",Effect on Abeta oligomer trafficking deficits over the concentrations tested [2],"EC50 ([2]; Rattus norvegicus, Hippocampal neuron, Table 11C, known prior art compounds, read-out: Inhibition Abeta oligomer-induced Membrane Trafficking EC50) [nM]",Functional Neuronal Phenotype ([2]; Table 11C),Action [3],Caspase-3 activity induced in tumor cells [4],Caspase-3 activity induced in neurons [5],Displacement of [3H]-RHM-1 (sigma-2 receptor),"Ki (Sigma-1 receptors [6]; read-out: S1 binding Ki, Table 11C) [nM]","Ki (Sigma-1 receptors [6]; read-out: Sigma 1 Binding Ki, known prior art compounds, published studies) [nM]",Sigma 2 type of activity (Sigma-2 receptors; in brackets after the Ki),"Other Targets: alpha 1A, 1B (alpha 1A, 1B)",Other Targets: D2 (D2),Nuclear morphology / nuclear intensity in neurons (neuronal cultures)
"COc1ccc(CCN2CCN(CCCc3ccccc3)CC2)cc1OC.Cl.Cl [Cutamesine, Cutamesine dihydrochloride]",17,> 1800,"VAChT(50 nM),","D2 (2 uM), alpha1",(2 uM),,,,,,,,,,,,,
Fc1ccc(-n2cc(CCCCN3CCC4(CC3)OCc3ccccc34)c3ccccc32)cc1 [siramesine],,,,,,"blocks Abeta oligomer trafficking deficits at low concentrations, but causes cellular toxicity at high concentrations",1300,Agonist,Full agonist,induced caspase-3 activity,induced,partially displace,19,19,agonist,"1A, 1B (300 nM)","D2 (800 nM), alpha",caused significant abnormal nuclear morphology
